Results taken from PubChem BioAssay (NCI).
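Values below derive from 48-hour exposures of cells grown in 96-well plates, with endpoints linearly interpolated between the two concentrations bracketing the appropriate inhibition level. TGI: total growth inhibition.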

Columns and labels:
Test in all cases: NCI tumour cell line growth inhibition, 48 h
[1] = tested on: 786-0 renal
[2] = tested on: A498 renal
[3] = tested on: A549 NSCLC
[4] = tested on: ACHN renal
[5] = tested on: BT-549 breast
[6] = tested on: CAKI-1 renal
[7] = tested on: CCRF-CEM leukemia
[8] = tested on: COLO 205 colon
[9] = tested on: DU-145 prostate
[10] = tested on: EKVX NSCLC
[11] = tested on: HCC-2998 colon
[12] = tested on: HCT-116 colon
[13] = tested on: HCT-15 colon
[14] = tested on: HL-60(TB) leukemia
[15] = tested on: HOP-62 NSCLC
[16] = tested on: HOP-92 NSCLC
[17] = tested on: HS 578T breast
[18] = tested on: HT29 colon
[19] = tested on: IGROV1 ovarian
[20] = tested on: K-562 leukemia
[21] = tested on: KM12 colon
[22] = tested on: LOX IMVI melanoma
[23] = tested on: M14 melanoma
[24] = tested on: MALME-3M melanoma
[25] = tested on: MCF7 breast
[26] = tested on: MDA-MB-231 breast
[27] = tested on: MDA-MB-435
[28] = tested on: MDA-N
[29] = tested on: MOLT-4 leukemia
[30] = tested on: NCI-H226 lung
[31] = tested on: NCI-H23 lung
[32] = tested on: NCI-H460 lung
[33] = tested on: NCI/ADR-RES ovarian
[34] = tested on: OVCAR-3 ovarian
[35] = tested on: OVCAR-4 ovarian
[36] = tested on: OVCAR-5 ovarian
[37] = tested on: OVCAR-8 ovarian
[38] = tested on: PC-3 prostate
[39] = tested on: RPMI-8226 leukemia
[40] = tested on: RXF 393 renal
[41] = tested on: SF-268 CNS
[42] = tested on: SF-295 CNS
[43] = tested on: SF-539 CNS
[44] = tested on: SK-MEL-2 melanoma
[45] = tested on: SK-MEL-28 melanoma
[46] = tested on: SK-MEL-5 melanoma
[47] = tested on: SK-OV-3 ovarian
[48] = tested on: SN12C renal
[49] = tested on: SNB-19 CNS
[50] = tested on: SNB-75 CNS
[51] = tested on: SR leukemia
[52] = tested on: SW-620 colon
[53] = tested on: T-47D breast
[54] = tested on: TK-10 renal
[55] = tested on: U251 CNS
[56] = tested on: UACC-257 melanoma
[57] = tested on: UACC-62 melanoma
[58] = tested on: UO-31 renal
[59] = tested on: NCI-H522 lung

Work on CC1CCC(=O)C(C(=O)CC2CC(=O)NC(=O)C2)C1 (configuration not stated) yielded a TGI [1] of over 100 µM, a TGI [2] of over 100 µM and a TGI [3] of over 100 µM. The TGI [4] was over 100 µM, the TGI [5] was over 100 µM and the TGI [6] was over 100 µM. It also gave a TGI [7] of over 100 µM, a TGI [8] of over 100 µM and a TGI [9] of over 100 µM. It also gave a TGI [10] of over 100 µM, a TGI [11] of over 100 µM and a TGI [12] of over 100 µM. For the same compound, the TGI [13] was over 100 µM, the TGI [14] was over 100 µM and the TGI [15] was over 100 µM. It also gave a TGI [16] of over 100 µM, a TGI [17] of over 100 µM and a TGI [18] of over 100 µM. The TGI [19] was over 100 µM, the TGI [20] was over 100 µM and the TGI [21] was over 100 µM. For the same compound, the TGI [22] was over 100 µM, the TGI [23] was over 100 µM and the TGI [24] was over 100 µM. It also gave a TGI [25] of over 100 µM, a TGI [26] of over 100 µM and a TGI [27] of over 100 µM. For the same compound, the TGI [28] was over 100 µM, the TGI [29] was over 100 µM and the TGI [30] was over 100 µM. It also gave a TGI [31] of over 100 µM, a TGI [32] of over 100 µM and a TGI [33] of over 100 µM. For the same compound, the TGI [34] was over 100 µM, the TGI [35] was over 100 µM and the TGI [36] was over 100 µM. The TGI [37] was over 100 µM, the TGI [38] was over 100 µM and the TGI [39] was over 100 µM. For the same compound, the TGI [40] was over 100 µM, the TGI [41] was over 100 µM and the TGI [42] was over 100 µM. The TGI [43] was over 100 µM, the TGI [44] was over 100 µM and the TGI [45] was over 100 µM. It also gave a TGI [46] of over 100 µM, a TGI [47] of over 100 µM and a TGI [48] of over 100 µM. For the same compound, the TGI [49] was over 100 µM, the TGI [50] was over 100 µM and the TGI [51] was over 100 µM. For the same compound, the TGI [52] was over 100 µM, the TGI [53] was over 100 µM and the TGI [54] was over 100 µM. It also gave a TGI [55] of over 100 µM, a TGI [56] of over 100 µM and a TGI [57] of over 100 µM. For the same compound, the TGI [58] was over 100 µM.
In the case of CCC1(C)N=C(c2cnccn2)NN1c1ccc(Cl)cc1 (configuration not stated), the TGI [1] is reported as over 100 µM, the TGI [2] is reported as over 100 µM and the TGI [3] is reported as over 100 µM. For the same compound, the TGI [4] was over 100 µM, the TGI [5] was over 100 µM and the TGI [6] was over 100 µM. For the same compound, the TGI [7] was 59.9 µM, the TGI [8] was over 100 µM and the TGI [9] was over 100 µM. It also gave a TGI [10] of over 100 µM, a TGI [12] of over 100 µM and a TGI [13] of over 100 µM. For the same compound, the TGI [14] was over 100 µM, the TGI [15] was over 100 µM and the TGI [16] was over 100 µM. It also gave a TGI [17] of over 100 µM, a TGI [18] of over 100 µM and a TGI [19] of over 100 µM. For the same compound, the TGI [20] was over 100 µM, the TGI [21] was over 100 µM and the TGI [22] was over 100 µM. It also gave a TGI [23] of over 100 µM, a TGI [24] of over 100 µM and a TGI [25] of over 100 µM. For the same compound, the TGI [26] was over 100 µM, the TGI [27] was over 100 µM and the TGI [28] was over 100 µM. The TGI [29] was over 100 µM, the TGI [30] was over 100 µM and the TGI [31] was over 100 µM. It also gave a TGI [32] of over 100 µM, a TGI [59] of over 100 µM and a TGI [33] of over 100 µM. For the same compound, the TGI [34] was over 100 µM, the TGI [35] was over 100 µM and the TGI [36] was over 100 µM. It also gave a TGI [37] of over 100 µM, a TGI [38] of over 100 µM and a TGI [39] of over 100 µM. It also gave a TGI [40] of over 100 µM, a TGI [41] of over 100 µM and a TGI [42] of over 100 µM. It also gave a TGI [43] of over 100 µM, a TGI [44] of over 100 µM and a TGI [45] of over 100 µM. It also gave a TGI [46] of over 100 µM, a TGI [47] of over 100 µM and a TGI [48] of 72.3 µM. It also gave a TGI [49] of over 100 µM, a TGI [50] of over 100 µM and a TGI [51] of 76.2 µM. For the same compound, the TGI [52] was over 100 µM, the TGI [53] was 74.5 µM and the TGI [54] was over 100 µM. The TGI [55] was over 100 µM, the TGI [56] was 99.3 µM and the TGI [57] was over 100 µM. It also gave a TGI [58] of over 100 µM.
N=C(N)SCc1cccc(-c2nc3ccccc3c(=O)o2)c1 showed a TGI [1] of over 100 µM, a TGI [2] of over 100 µM and a TGI [3] of over 100 µM. It also gave a TGI [4] of over 100 µM, a TGI [5] of over 100 µM and a TGI [6] of over 100 µM. For the same compound, the TGI [8] was over 100 µM, the TGI [9] was over 100 µM and the TGI [10] was over 100 µM. The TGI [11] was over 100 µM, the TGI [12] was over 100 µM and the TGI [13] was over 100 µM. For the same compound, the TGI [15] was over 100 µM, the TGI [16] was over 100 µM and the TGI [17] was over 100 µM. It also gave a TGI [18] of over 100 µM, a TGI [19] of over 100 µM and a TGI [20] of over 100 µM. For the same compound, the TGI [21] was over 100 µM, the TGI [22] was over 100 µM and the TGI [23] was over 100 µM. It also gave a TGI [24] of over 100 µM, a TGI [25] of over 100 µM and a TGI [26] of over 100 µM. The TGI [27] was over 100 µM, the TGI [28] was over 100 µM and the TGI [30] was over 100 µM. The TGI [31] was over 100 µM, the TGI [32] was over 100 µM and the TGI [59] was over 100 µM. It also gave a TGI [33] of over 100 µM, a TGI [34] of over 100 µM and a TGI [35] of over 100 µM. For the same compound, the TGI [36] was over 100 µM, the TGI [37] was over 100 µM and the TGI [38] was over 100 µM. It also gave a TGI [39] of over 100 µM, a TGI [40] of over 100 µM and a TGI [41] of over 100 µM. It also gave a TGI [42] of over 100 µM, a TGI [43] of over 100 µM and a TGI [44] of over 100 µM. It also gave a TGI [45] of over 100 µM, a TGI [46] of over 100 µM and a TGI [47] of over 100 µM. It also gave a TGI [48] of over 100 µM, a TGI [49] of over 100 µM and a TGI [50] of over 100 µM. For the same compound, the TGI [51] was over 100 µM, the TGI [52] was over 100 µM and the TGI [53] was over 100 µM. For the same compound, the TGI [54] was over 100 µM, the TGI [55] was over 100 µM and the TGI [56] was over 100 µM. It also gave a TGI [57] of over 100 µM and a TGI [58] of over 100 µM.
